The text below walks through data of patent publication US4232007A, “Oral antilipemic agents” (Taiho Pharmaceutical Company Ltd., priority 1975, dated 1980).

Series [1] relates to lipids in blood. As to the kind of experiment: Reduction of lipids in blood of rats given surfactant Triton WR-1339, oral administration. The class given is in vivo, rat. The settings on record: rats given Triton WR-1339 200 mg/kg i.v., compound 50 mg/kg oral; for Free cholesterol: normal rat 25.7 ± 3.7, rat given surfactant 114.2 ± 28.8; for β-Lipoprotein: normal rat 44.3 ± 1.3, rat given surfactant 141.7 ± 28.8; for Triglyceride: normal rat 44.7 ± 3.5, rat given surfactant 780.1 ± 354.5; for Total cholesterol: normal rat 89.9 ± 10.4, rat given surfactant 235.3 ± 41.7; for Total lipid: normal rat 220 ± 12, rat given surfactant 1033 ± 330. The protocol:
A 100 g quantity of the methyl ester of polyglutamic acid (average molecular weight: 100,000) is dissolved in dichloroethane to a concentration of 10 wt.%. To the solution is added a mixture of 70 ml of 2 N sodium hydroxide solution, 140 ml of methanol and 140 ml of isopropanol,and the resulting mixture is stirred at room temperature for about 8 hours to effect demethylation. The product is then passed through a molecular sieve (Sephadex G-200) for the classification of molecular weight to separate a portion ranging from 80,000 to 100,000 in molecular weight (average molecular weight: 90,000). The separated portion is concentrated under reduced pressure and divided into two portions of equivalent weight. To one of the portions is added methanol and the precipitate formed is separated by filtration and dried to obtain the sodium salt of polyglutamic acid. To the other portion is added concentrated hydrochloric acid until the pH thereof reaches 4, then the solution is cooled with ice, whereby a precipitate is formed. The precipitate is separated by filtration, washed with diluted hydrochloric acid, thereafter with methanol and dried to obtain polyglutamic acid. Each powder (200 mg) of polyglutamic acid and sodium salt thereof thus obtained is mixed with 290 mg of milk sugar, 500 mg of corn starch and 10 mg of hydroxypropyl cellulose and the mixtures obtained are granulated respectively. The granules are suspended in water. Two kinds of the suspensions are orally administered to 7 rats in a dose of 50 mg/kg, respectively, to determine the reduction of lipids in blood.
The separated portion is concentrated under reduced pressure, methanol is added to the concentrate and the resulting precipitate is filtered off and dried to obtain the sodium salt of the copolymer of glutamic acid and aspartic acid. With the powder (200 mg) thus obtained are mixed 290 mg of milk sugar, 500 mg of corn starch and 10 mg of hydroxypropyl cellulose. The mixture is granulated and the granules are suspended in an isotonic sodium chloride solution.

Series [2] deals with Rat. The series is described as follows: Acute toxicity test. The class given is in vivo. The following applies: for LD50: 72 hours after administration.
For series [3], the system named is plasma. The series is described as follows: Recalcification test. The class given is biochemical, rat. The following applies: 58 sec. at 0 μg. How it is done:
A 0.5 ml quantity of 0.1 M sodium citrate is added to 4.5 ml of blood of rat to obtain plasma. […] Thereafter 0.1 ml of 0.025 M CaCl2 saline solution is added to coagulate the blood sample.

For series [4], the system named is lipids in blood. The following applies: known drugs, background; cited from earlier work.
In series [5] the test system is anticoagulant activity. The settings on record: cited from earlier work.
[6] abbreviates: amount 100 μg, ditto mark = No coagulation.

For sodium salt of polyglutamic acid, in series [1], the Free cholesterol is listed as 40.0 ± 11.4 mg/dl of plasma, the β-Lipoprotein is reported as 63.4 ± 16.9 mg/dl of plasma, the Triglyceride is on record as 92.0 ± 42.8 mg/dl of plasma and the Total cholesterol is reported as 121.8 ± 18.9 mg/dl of plasma. Besides, the Total lipid in series [1] is given as 393 ± 66 mg/dl of plasma.

By LD50 is commonly meant the dose expected to kill half of the subjects tested. Read a high LD50 as lower toxicity. Regarding heparin, the LD50 in series [2] (intravenous) amounted to 730 mg/kg; in series [2] (oral), 1950 mg/kg. The Coagulation time was 62 s in series [3] (amount 0.1 μg); 145 s in series [3] (amount 0.3 μg); 168 s in series [3] (amount 0.5 μg); 285 s in series [3] (amount 1 μg); “No coagulation” in series [3] (amount 10 μg). Moreover, in series [4], the “reducing lipids in blood” value is “effective in reducing lipids in blood”. In addition, the “anticoagulant activity as a side effect” value in series [5] is recorded as “very high anticoagulant activity”.

In the case of dextran sulfate, the Coagulation time is 57 s in series [3] (amount 0.1 μg); 62 s in series [3] (amount 0.3 μg); 61 s in series [3] (amount 0.5 μg); 117 s in series [3] (amount 1 μg); 172 s in series [3] (amount 10 μg); “No coagulation” in series [3] (setting [6]). The “reducing lipids in blood” value in series [4] is “effective in reducing lipids in blood”. Also, the “anticoagulant activity as a side effect” value in series [5] was “very high anticoagulant activity”.

Regarding polyglutamic acid, the Free cholesterol in series [1] is recorded as 38.8 ± 11.7 mg/dl of plasma. Besides, the β-Lipoprotein in series [1] is recorded as 61.9 ± 29.0 mg/dl of plasma. For the same substance, the Triglyceride in series [1] is listed as 103.3 ± 67.2 mg/dl of plasma. The Total cholesterol in series [1] was 118.1 ± 35.3 mg/dl of plasma. Also, the Total lipid in series [1] is recorded as 373 ± 132 mg/dl of plasma. In addition, the “toxicity compared with heparin” value in series [2] (Table 2) was “much lower toxicity than heparin”. The median lethal dose (LD50) came to 2050 mg/kg in series [2] (intravenous) and 6000 mg/kg in series [2] (oral). Further, the Coagulation time in series [3] (amount 0.1 μg) turned out to be 55 s; in series [3] (amount 0.3 μg) it was 58 s; in series [3] (amount 0.5 μg) it was 56 s; in series [3] (amount 1 μg), 62 s; in series [3] (amount 10 μg) it was 58 s; in series [3] (setting [6]), 62 s. Further, the Coagulation time in series [3] (amount 500 μg, ditto mark = No coagulation) came to 100 s; in series [3] (amount 1000 μg, ditto mark = No coagulation), 151 s; in series [3] (amount 2000 μg, ditto mark = No coagulation), 250 s.
